Data published in ChEMBL document CHEMBL1697692, “Developing structure-activity relationships for the prediction of hepatotoxicity” (Chem Res Toxicol, 2010).

System: Hepatotoxicity
Assay: Literature-mined public compounds from Greene et al multi-species hepatotoxicity modelling dataset

| SMILES | Hepatotoxicity |
| --- | --- |
| COc1cccc(OC)c1C(=O)N[C@@H]1C(=O)N2[C@@H]1SC(C)(C)[C@@H]2C(=O)[O-].[Na+] | HH: Evidence of human hepatotoxicity |
| Oc1c(Cl)cc(Cl)c(Cl)c1Cc1c(O)c(Cl)cc(Cl)c1Cl [HEXACHLOROPHENE] | HH: Evidence of human hepatotoxicity |
| CC1=CC(=O)c2ccccc2C1=O [MENADIONE] | AH: Evidence for animal hepatotoxicity but not tested in humans |
| COc1ccccc1Oc1c(NS(=O)(=O)c2ccc(C(C)(C)C)cc2)nc(-c2ncccn2)nc1OCCO [BOSENTAN] | HH: Evidence of human hepatotoxicity |
| O=C(O)P(=O)(O)O [FOSCARNET] | NE: No evidence of hepatotoxicity in any species |
| O=C1NC(=O)C(c2ccccc2)(c2ccccc2)N1 [PHENYTOIN] | HH: Evidence of human hepatotoxicity |
| CCCNC(=O)NS(=O)(=O)c1ccc(Cl)cc1 [CHLORPROPAMIDE] | HH: Evidence of human hepatotoxicity |
| O=[N+]([O-])c1ccc(O)c([N+](=O)[O-])c1 [2,4-DINITROPHENOL] | AH: Evidence for animal hepatotoxicity but not tested in humans |
| CC(C)(CO)[C@@H](O)C(=O)NCCC(=O)[O-].CC(C)(CO)[C@@H](O)C(=O)NCCC(=O)[O-].[Ca+2] [CALCIUM PANTOTHENATE] | NE: No evidence of hepatotoxicity in any species |
| CC[C@H]1OC(=O)[C@H](C)C(=O)[C@H](C)[C@@H](O[C@@H]2O[C@H](C)C[C@H](N(C)C)[C@H]2O)[C@](C)(OC)C[C@@H](C)C(=O)[C@H](C)[C@H]2N(CCCCn3cnc(-c4cccnc4)c3)C(=O)O[C@]12C [TELITHROMYCIN] | HH: Evidence of human hepatotoxicity |
| CN1C(C(=O)Nc2ccccn2)=C(O)c2ccccc2S1(=O)=O [PIROXICAM] | HH: Evidence of human hepatotoxicity |
| CCN(CC)C(=O)N1CCN(C)CC1 [DIETHYLCARBAMAZINE] | HH: Evidence of human hepatotoxicity |
| Cn1nnnc1SCC1=C(C(=O)[O-])N2C(=O)[C@@H](NC(=O)[C@H](O)c3ccccc3)[C@H]2SC1.[Na+] [CEFAMANDOLE SODIUM] | HH: Evidence of human hepatotoxicity |
| C[C@H](CCC(=O)O)[C@H]1CC[C@H]2[C@@H]3CC[C@@H]4C[C@H](O)CC[C@]4(C)[C@H]3CC[C@]12C [LITHOCHOLIC ACID] | AH: Evidence for animal hepatotoxicity but not tested in humans |
| C=C1c2cccc(O)c2C(=O)C2=C(O)[C@]3(O)C(=O)C(C(N)=O)=C(O)[C@@H](N(C)C)[C@@H]3[C@@H](O)[C@H]12.Cl [METHACYCLINE HYDROCHLORIDE] | HH: Evidence of human hepatotoxicity |
| CN1CCN(C(c2ccccc2)c2ccccc2)CC1 [CYCLIZINE] | HH: Evidence of human hepatotoxicity |
| ClC(Cl)Cl [CHLOROFORM] | AH: Evidence for animal hepatotoxicity but not tested in humans |

| SMILES | Hepatotoxicity |
| --- | --- |
| O=C1NCN(c2ccccc2)C12CCN(CCCC(c1ccc(F)cc1)c1ccc(F)cc1)CC2 | HH: Evidence of human hepatotoxicity |
| O=C(O)CCc1nc(-c2ccccc2)c(-c2ccccc2)o1 [OXAPROZIN] | HH: Evidence of human hepatotoxicity |
| CCc1nn(CCCN2CCN(c3cccc(Cl)c3)CC2)c(=O)n1CCOc1ccccc1 [NEFAZODONE] | HH: Evidence of human hepatotoxicity |
| Cl.Cl.O=C(CCN1CCN2CCCC2C1)N1c2ccccc2Sc2ccc(Cl)cc21 (centres undefined) [AZACLORZINE HYDROCHLORIDE] | HH: Evidence of human hepatotoxicity |
| CN(C)CCCN1c2ccccc2Sc2ccc(Cl)cc21 [CHLORPROMAZINE] | HH: Evidence of human hepatotoxicity |
| N[C@@H](Cc1cc(I)c(Oc2ccc(O)c(I)c2)c(I)c1)C(=O)O [LIOTHYRONINE] | NE: No evidence of hepatotoxicity in any species |
| Cc1ncc(C[n+]2csc(CCO)c2C)c(N)n1 [THIAMINE ION] | NE: No evidence of hepatotoxicity in any species |
| Cc1ccc(C(=O)c2ccc(CC(=O)O)n2C)cc1 [TOLMETIN] | HH: Evidence of human hepatotoxicity |
| CC[N+](C)(C)c1cccc(O)c1.[Cl-] [EDROPHONIUM CHLORIDE] | NE: No evidence of hepatotoxicity in any species |
| C=C(C)[C@H]1Cc2c(ccc3c2O[C@@H]2COc4cc(OC)c(OC)cc4[C@@H]2C3=O)O1 [ROTENONE] | AH: Evidence for animal hepatotoxicity but not tested in humans |
| Nc1nc(NC2CC2)c2ncn([C@H]3C=C[C@@H](CO)C3)c2n1 [ABACAVIR] | HH: Evidence of human hepatotoxicity |
| CC1(c2ccccc2)Cc2cc(OCC(=O)O)c(Cl)c(Cl)c2C1=O (centres undefined) [INDACRINONE] | HH: Evidence of human hepatotoxicity |
| CC(C)(C)c1ccc(C(O)CCCN2CCC(C(O)(c3ccccc3)c3ccccc3)CC2)cc1 (centres undefined) [TERFENADINE] | NE: No evidence of hepatotoxicity in any species |
| CC(C)(C)NC[C@H](O)COc1ccccc1C1CCCC1.CC(C)(C)NC[C@H](O)COc1ccccc1C1CCCC1.O=S(=O)(O)O [PENBUTOLOL SULFATE] | HH: Evidence of human hepatotoxicity |
| CC[C@H]1OC(=O)[C@H](C)[C@@H](O[C@H]2C[C@@](C)(OC)[C@@H](O)[C@H](C)O2)[C@H](C)[C@@H](O[C@@H]2O[C@H](C)C[C@H](N(C)C)[C@H]2O)[C@](C)(O)C[C@@H](C)CN(C)[C@H](C)[C@@H](O)[C@]1(C)O [AZITHROMYCIN] | WE: Weak evidence (<10 case reports) of human hepatotoxicity |
| O=C1CC[C@@]2(O)[C@H]3Cc4ccc(O)c5c4[C@@]2(CCN3CC2CC2)[C@H]1O5 [NALTREXONE] | HH: Evidence of human hepatotoxicity |
| N[C@@H]1[C@H]2CN(c3nc4c(cc3F)c(=O)c(C(=O)O)cn4-c3ccc(F)cc3F)C[C@@H]12 [TROVAFLOXACIN] | HH: Evidence of human hepatotoxicity |
